Data on two compounds can be found in patent publication US20060189546A1, “Compounds for treating autoimmune and demyelinating diseases” (priority 2005, published 2006).

For one series, the system named is IL-4. The series can be described thus: Mediator release, IL-4 (Con A-stimulated PBML, sandwich ELISA). The format is cell-based. As to conditions: Homo sapiens. As for the experimental part:
(§1) In this experiment, test compound and/or vehicle were preincubated with human peripheral blood mononuclear leukocyte (PBML, 1×10^6/ml) in RPMI buffer pH 7.4 for 2 hours. Concanavalin A (Con A, 20 μg/ml) was then added to stimulate the cells overnight in 5% CO2 at 37° C. IL-4 and IL-10 cytokine levels in the conditioned medium were then quantified using a sandwich ELISA kit. Compounds were screened at 10, 1, 0.1, 0.01 and 0.001 μM.

The test system of a further series is IL-10. The series can be described thus: Mediator release, IL-10 (Con A-stimulated PBML, sandwich ELISA). The format is cell-based. As to conditions: Homo sapiens, IL-10 release. As for the experimental part:
as §1

A further series has as its system B-lymphocyte cells. The series can be described thus: Cell Proliferation, B-Cell + LPS ([3H]thymidine incorporation). It is filed as cell-based, balb/c mice. As to conditions: Mus musculus, B-Cell + LPS. As for the experimental part: B-lymphocyte cells isolated from the spleen of balb/c mice weighing 17±1 g were used. Test compound and/or vehicle were incubated with the cells (1.5×10^6/ml) in the presence of 10 μg/ml lipopolysaccharide (LPS) in AIM-V medium pH 7.4 at 37° C. for 24 hours. [^3H]Thymidine (120 nM) was then added for an additional overnight incubation period. Thymidine incorporation was assessed by liquid scintillation counting.
(§2) Test compound-induced suppression of cell proliferation by 50 percent or more (≧50%) relative to vehicle control response indicates significant inhibitory activity.
Background: Dividing cells build labelled thymidine or BrdU into new DNA.

The subject of the next series is T-lymphocyte cells. The series can be described thus: Cell Proliferation, T-Cell + Con A ([3H]thymidine incorporation). It is filed as cell-based, balb/c mice. As to conditions: Mus musculus, T-Cell + Con A. As for the experimental part:
T-lymphocyte cells isolated from thymus of balb/c mice weighing 17±1 g were used. Test compound and/or vehicle is incubated with the cells (4×10^6/ml) in the presence of 3 μg/mL Concanavalin A (Con A) in AIM-V medium pH 7.4 at 37° C. for 24 hours. [^3H]Thymidine (120 nM) was then added for an additional overnight incubation period. Thymidine incorporation was assessed by liquid scintillation counting.
as §2

The test system of series [1] is Experimental Autoimmune Encephalomyelitis (EAE). Description: Acute EAE, daily dosing for 15 days (Example 5). The format is in vivo, guinea pigs. As to conditions: Symadex 6 mg/kg, mitoxantrone 0.35 mg/kg. As for the experimental part: Accordingly, three randomized cohorts of guinea pigs with EAE induced by the method of Example 2, were treated, respectively, with 6 mg/kg of Symadex™ (full salt hydrate) and 0.35 mg/kg of mitoxantrone. Animals were treated daily, by intraperitoneal injection, for 15 days, starting on day 7 post immunization. Controls were treated with vehicle. We reasoned that 15 consecutive, 6 mg/kg doses of Symadex™ would represent a level of drug exposure that would be commensurate with the “20 mg/kg every 72 hours” regimen in Example 4 and consistent with a mid level exposure between the 20 mg/kg and the 40 mg/kg schedule given weekly, in Example 2. The mitoxantrone dose was selected to reflect a typical high dose given to rats or mice by daily dosing in the prior art, but allometrically scaled to the guinea pig.

Series [2] deals with Collagen Antibody Induced Arthritis. As to conditions: Lange et al., Annals of Rheumatoid Disease 64:599-605, 2005; cited from earlier work.
Where [3] appears, read: 1 nM, read-out: % Growth Inhibition.
[4] abbreviates: 10 nM, read-out: % Growth Inhibition.
Where [5] appears, read: 0.1 μM, read-out: % Growth Inhibition.
[6] abbreviates: 1 μM, read-out: % Growth Inhibition.
Setting [7] is: 10 μM, read-out: % Growth Inhibition.

As to `O=C1c2c(O)ccc(O)c2C(=O)c2c(NCCNCCO)ccc(NCCNCCO)c21` [Mitoxantrone, reference compound], the % inhibition of IL-4 release at 0.001 µM in the series on IL-4 (setting [3]) was determined as 11%. In addition, the % inhibition of IL-4 release at 0.01 µM in the series with IL-4 (setting [4]) was 13%. Besides, the % inhibition of IL-4 release at 0.1 µM with IL-4 (setting [5]) stood at 18%. Moreover, the % inhibition of IL-4 release at 1 µM with IL-4 (setting [6]) is -4%. In the series with IL-4 (setting [7]), the % inhibition of IL-4 release at 10 µM turned out to be 108%. In addition, the IC50 – broadly, the midpoint of a concentration-inhibition curve – with IL-4 (IL-4 release) was found to be 2960 nM; with IL-10, 759 nM; in the series on B-lymphocyte cells, 7.31 nM; with T-lymphocyte cells it was 32 nM. Further, the results for the inhibition at 0.001 µM in the series with IL-10 (setting [3]), in the series with B-lymphocyte cells (setting [3]) and in the series with T-lymphocyte cells (setting [3]) were 2%, 18% and -1%, respectively. The inhibition (usually the relative decrease from the control value, in per cent) at 0.01 µM with IL-10 (setting [4]) stood at 1%; in the series on B-lymphocyte cells (setting [4]) it was 54%; in the series with T-lymphocyte cells (setting [4]), 19%. Moreover, the results for the inhibition at 0.1 µM in the series with IL-10 (setting [5]), in the series with B-lymphocyte cells (setting [5]) and in the series on T-lymphocyte cells (setting [5]) were 5%, 93% and 80%, respectively. The results for the inhibition at 1 µM in the series on IL-10 (setting [6]), with B-lymphocyte cells (setting [6]) and in the series on T-lymphocyte cells (setting [6]) were 60%, 102% and 103%, respectively. Further, the figures for the inhibition at 10 µM in the series with IL-10 (setting [7]), in the series on B-lymphocyte cells (setting [7]) and with T-lymphocyte cells (setting [7]) were 102%, 102% and 103%, respectively. Also, the “clinical score (neurological impairment)” value in series [1] (daily i.p. for 15 days from day 7) is recorded as “the initial rise in neurological impairment is arrested”. The weight gain result in series [1] (daily i.p. for 15 days) is “impairs weight gain”. Moreover, the “reduction of meningeal inflammation (M) pathology score” value in series [1] (necropsy after 15 daily doses) is recorded as “statistically significant reduction in meningeal inflammation”. Moreover, the “reduction of perivascular cuffing (P), myelitis (E) and demyelination (D) pathology scores” value in series [1] (necropsy after 15 daily doses) is “statistically significant differences (p value<0.05) from control”.
As to `CN(Cc1cnc2nc(N)nc(N)c2n1)c1ccc(C(=O)N[C@@H](CCC(=O)O)C(=O)O)cc1` [Methotrexate], in series [2], the “benefit in antibody induced arthritis models” value was “diminishing benefit”.
